Like-named read-outs stand apart in the source and are kept apart here.
How the values were obtained:
[1] = Solubility at tested concentrations in the fragment library screening; assay type: physicochemical
Excerpt: (§1) Supplement IENZ_A_2149745_SM2502.zip/DDlB_CDR05_SI_20221103.xlsx, sheet "Fragment library screening" | column: Solubility at tested concentrations

[2] = target: T1, E. coli DdlB enzyme (D-alanine:D-alanine ligase) (Escherichia coli, UniProt P07862); test: biochemical; settings: for remaining activity at 1800 µM: tested concentration 1.8 mM; for remaining activity at 2200 µM: tested concentration 2.2 mM; for remaining activity at 2000 µM: tested concentration 2.0 mM; for remaining activity at 1700 µM: tested concentration 1.7 mM; for remaining activity at 1900 µM: tested concentration 1.9 mM; for remaining activity at 2100 µM: tested concentration 2.1 mM
T1 construct: made in house; host or cells: E. coli

[3] = Solubility at tested concentrations in fragment library screening; assay type: physicochemical
Excerpt: as §1

[4] = target: E. coli MurA enzyme (UDP-N-acetylglucosamine enolpyruvyl transferase) (Escherichia coli, UniProt P0A749); test: MurA inhibition assay (malachite green, deselection); settings: read-out: MurA inhibition, RA (Residual Activity)
Chain of E. coli MurA enzyme (UDP-N-acetylglucosamine enolpyruvyl transferase) (P0A749 whole entry, the tested form may be a part): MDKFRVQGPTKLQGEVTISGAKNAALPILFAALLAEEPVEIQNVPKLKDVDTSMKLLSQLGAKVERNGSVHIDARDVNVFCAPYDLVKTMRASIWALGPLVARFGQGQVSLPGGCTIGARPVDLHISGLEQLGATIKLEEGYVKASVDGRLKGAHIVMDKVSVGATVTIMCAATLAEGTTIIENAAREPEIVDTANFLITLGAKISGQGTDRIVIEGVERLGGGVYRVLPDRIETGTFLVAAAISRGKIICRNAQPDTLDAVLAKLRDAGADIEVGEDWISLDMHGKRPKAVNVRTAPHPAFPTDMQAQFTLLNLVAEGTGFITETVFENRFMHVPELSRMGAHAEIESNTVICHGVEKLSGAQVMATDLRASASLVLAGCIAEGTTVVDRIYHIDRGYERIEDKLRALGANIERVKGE
Procedure: Inhibition of the enzyme was determined using an end-point malachite green assay by detecting the orthophosphate formed during the enzymatic reaction. […] The final DMSO concentration was 5%. […] A parallel experiment without the enzyme was performed to detect insoluble compounds under the assay conditions and subtracted from each measurement. All experiments were performed in duplicates. RAs were calculated with respect to blank experiments without tested compounds and with 5% DMSO.

[5] = Solubility at tested concentrations (fragment library screening); assay type: physicochemical; settings: tested concentration 1.9 mM
Excerpt: as §1

[6] = at the Tested concentration [mM]
[7] = residual activity, read-out: DdlB RA

CCc1c(C)[nH]c(=O)c(C(=O)O)c1C#N [Compound 8020-6317]
Solubility at tested concentrations [1, 6]: not soluble

O=C1CSC(c2ccccc2)N1CCc1ccccc1 (stereo not drawn) [Compound 1410-0151]
remaining activity at 1800 µM ([2]; read-out: DdlB RA): 134% | Solubility at tested concentrations ([1]; tested concentration 1.8 mM): not soluble

O=C(NCCc1ccco1)C1COc2ccccc2C1 (stereo not drawn) [Compound G668-0290]
remaining activity at 2200 µM [2, 7]: 70% | Solubility at tested concentrations ([3]; tested concentration 2.2 mM): not soluble

O=C(O)c1ccc(-c2ccccc2)nc1O [Compound D724-1054]
Solubility at tested concentrations [1, 6]: not soluble

Cc1noc(C)c1C(=O)NCC1Cn2cccc2CN1C (stereo not drawn) [Compound 5]
remaining activity at 5000 µM [4]: 6% | remaining activity at 2500 µM ([2]; at 2.5 mM, read-out: DdlB inhibition, RA (Residual Activity)): 28%

Cc1ccccc1-n1nnnc1C1(N(C)C)CCCC1 [Compound J034-0206]
remaining activity at 2200 µM [2, 7]: 91% | Solubility at tested concentrations ([3]; tested concentration 2.2 mM): not soluble

Cc1ccc(C)c(S(=O)(=O)N2CCCC(C)C2)c1 (stereo not drawn) [Compound Y206-4328]
remaining activity at 2200 µM [2, 7]: 116% | Solubility at tested concentrations ([3]; tested concentration 2.2 mM): not soluble

O=C(O)c1cc(-c2ccccc2)nc2c(Cl)cnn12 [Compound Y504-7719]
remaining activity at 2200 µM [2, 7]: 90% | Solubility at tested concentrations ([3]; tested concentration 2.2 mM): not soluble

O=C1CSC(c2ccccc2)N1c1ccccc1 (stereo not drawn) [Compound 2339-2195]
remaining activity at 2000 µM ([2]; read-out: DdlB RA): 103% | Solubility at tested concentrations ([1]; tested concentration 2.0 mM): not soluble

O=S(=O)(Cc1ccc(Cl)cc1)N1CCOCC1 [Compound Y031-1160]
remaining activity at 2200 µM [2, 7]: 118% | Solubility at tested concentrations ([3]; tested concentration 2.2 mM): not soluble

O=C(Nc1ccccc1F)NC1COc2ccccc2C1 (stereo not drawn) [Compound G765-0058]
remaining activity at 1700 µM [2, 7]: 93% | Solubility at tested concentrations ([3]; tested concentration 1.7 mM): not soluble

O=S(=O)(c1ccccc1)N1CCOc2ccccc21 [Compound Z606-0391]
remaining activity at 2000 µM [2, 7]: 97% | Solubility at tested concentrations ([3]; tested concentration 2.0 mM): not soluble

COc1ccc(-n2c(C)ccc2C)nc1 [Compound 4]
remaining activity at 5000 µM [4]: 39% | IC50 ([2]; 700 μM D-Ala, 100 μM ATP, read-out: DdlB inhibition IC50): 1.79 mM

O=c1c(NCC2CCCO2)c(-c2ccccc2)c1=O (stereo not drawn) [Compound E470-0384]
remaining activity at 1900 µM ([2]; read-out: DdlB RA): 81% | Solubility at tested concentrations ([1]; tested concentration 1.9 mM): not soluble

O=S(=O)(NC1CCCCCC1)c1ccc(F)cc1 [Compound Y030-0828]
remaining activity at 2000 µM [2, 7]: 89% | Solubility at tested concentrations ([3]; tested concentration 2.0 mM): not soluble

Cc1cccc2c(O)c(C(=O)O)cnc12 [Compound 4491-1619]
Solubility at tested concentrations [1, 6]: not soluble

CC1CCCC(NC(=O)c2ccc(Cl)cc2)C1C (stereo not drawn) [Compound Y502-2265]
remaining activity at 2300 µM ([2]; residual activity, tested concentration 2.3 mM, read-out: DdlB RA): 91% | Solubility at tested concentrations ([3]; tested concentration 2.3 mM): not soluble

Cc1ccccc1S(=O)(=O)Nc1cnc2c(c1)CCC2 [Compound T157-0058]
remaining activity at 2100 µM [2, 7]: 48% | Solubility at tested concentrations ([3]; tested concentration 2.1 mM): not soluble

CN(C(=O)c1cc[nH]n1)C1CC(C)(C)N(C)C(C)(C)C1 [Compound 8013-1135]
remaining activity at 2000 µM [2, 7]: -1.26% | Solubility at tested concentrations ([3]; tested concentration 2.0 mM): not soluble

O=C(O)c1cnc2ccc(F)cc2c1O [Compound Y042-3098]
remaining activity at 2400 µM ([2]; tested concentration 2.4 mM, read-out: DdlB RA): 53% | Solubility at tested concentrations ([1]; tested concentration 2.4 mM): not soluble

OC1CCCc2c1[nH]c1ccc(Br)cc21 (stereo not drawn) [Compound 8010-6263]
remaining activity at 1900 µM [2, 7]: 29% | Solubility at tested concentrations ([3]; tested concentration 1.9 mM): not soluble

O=c1c(NCc2ccco2)c(-c2ccccc2)c1=O [Compound E470-0461]
remaining activity at 2000 µM ([2]; read-out: DdlB RA): 137% | Solubility at tested concentrations ([1]; tested concentration 2.0 mM): not soluble

O=c1c(NCCN2CCCCCC2)c(-c2ccccc2)c1=O [Compound E470-0490]
remaining activity at 1700 µM ([2]; read-out: DdlB RA): 88% | Solubility at tested concentrations ([1]; tested concentration 1.7 mM): not soluble

COc1ccc(Cc2ccc(F)cc2)cc1B(O)O [Compound 8020-3675]
remaining activity at 1900 µM ([2]; read-out: DdlB RA): 52% | Solubility at tested concentrations ([1]; tested concentration 1.9 mM): not soluble

Cc1ccccc1N(C)C(=O)Cc1noc2ccccc12 [Compound E207-0386]
remaining activity at 2100 µM [2, 7]: 102% | Solubility at tested concentrations ([3]; tested concentration 2.1 mM): not soluble

COc1ccccc1NC(=O)NC1COc2ccccc2C1 (stereo not drawn) [Compound G765-0207]
Solubility at tested concentrations [1, 6]: not soluble

CC(C)Oc1n[nH]c(-c2ccc(Cl)cc2Cl)n1 [Compound V017-7311]
remaining activity at 2200 µM [2, 7]: 98% | Solubility at tested concentrations ([3]; tested concentration 2.2 mM): not soluble

CC(C)(C)OC(=O)NCc1cccc(-c2cncs2)c1 [Compound V029-2538]
remaining activity at 1700 µM [2, 7]: 69% | Solubility at tested concentrations ([3]; tested concentration 1.7 mM): not soluble

O=C(O)c1cnc2cc(Cl)ccc2c1O [Compound Y042-3116]
remaining activity at 2200 µM ([2]; read-out: DdlB RA): 44% | Solubility at tested concentrations ([1]; tested concentration 2.2 mM): not soluble

O=C(O)c1nccnc1C(=O)Nc1ccc([N+](=O)[O-])cc1 [Compound C612-1047]
remaining activity at 1700 µM ([2]; read-out: DdlB RA): 38% | Solubility at tested concentrations ([1]; tested concentration 1.7 mM): not soluble

Cc1cccc(CC(=O)Nc2cccc(C(=O)O)c2)c1 [Compound Y206-6127]
remaining activity at 1900 µM ([2]; read-out: DdlB RA): 58% | Solubility at tested concentrations ([1]; tested concentration 1.9 mM): not soluble

O=C(O)c1cnc2ccc(OC(F)(F)F)cc2c1O [Compound Y042-3162]
remaining activity at 1800 µM ([2]; fragment library screening, read-out: DdlB RA): -5% | Solubility at tested concentrations ([3]; tested concentration 1.8 mM): not soluble

Cc1ccc(-c2c(N(C)c3ccc(C)cc3)c(=O)c2=O)cc1 [Compound E470-0191]
remaining activity at 1700 µM ([2]; read-out: DdlB RA): 73% | Solubility at tested concentrations ([1]; tested concentration 1.7 mM): not soluble

CCCCc1ccc2ncc(C(=O)O)c(O)c2c1 [Compound Y044-2907]
remaining activity at 2000 µM ([2]; read-out: DdlB RA): 85% | Solubility at tested concentrations ([1]; tested concentration 2.0 mM): not soluble

CC1=C(c2cccc(Cl)c2)S(=O)(=O)N=C1NC(C)C [Compound E013-2266]
Solubility at tested concentrations [1, 6]: not soluble

CC1CCN(c2c(-c3ccccc3)c(=O)c2=O)CC1 [Compound E470-0346]
remaining activity at 2000 µM ([2]; read-out: DdlB RA): 98% | Solubility at tested concentrations ([1]; tested concentration 2.0 mM): not soluble

CCCNc1c(-c2ccc(C(C)C)cc2)c(=O)c1=O [Compound E511-0830]
remaining activity at 1900 µM ([2]; read-out: DdlB RA): 101% | Solubility at tested concentrations ([1]; tested concentration 1.9 mM): not soluble

COc1cccc(NC2=NS(=O)(=O)c3ccccc32)c1 [Compound 8005-1580]
remaining activity at 1700 µM [2, 7]: 50% | Solubility at tested concentrations ([3]; tested concentration 1.7 mM): not soluble

CC1Cc2ccccc2N1c1c(-c2ccccc2)c(=O)c1=O (stereo not drawn) [Compound E470-0446]
remaining activity at 1700 µM ([2]; read-out: DdlB RA): 2.16% | Solubility at tested concentrations ([1]; tested concentration 1.7 mM): not soluble

CCc1ccc(C2Nc3ccccc3S(=O)(=O)N2)cc1 (stereo not drawn) [Compound F475-0262]
remaining activity at 2100 µM [2, 7]: 68% | Solubility at tested concentrations ([3]; tested concentration 2.1 mM): not soluble

O=C(O)c1cc(-c2ccc3ccccc3c2)[nH]n1 [Compound R052-2028]
remaining activity at 2100 µM ([2]; read-out: DdlB RA): 50% | Solubility at tested concentrations ([1]; tested concentration 2.1 mM): not soluble

CC1CCN(C(=O)CC2(n3cccc3)CCCCC2)CC1 [Compound Y042-5984]
remaining activity at 1700 µM [2, 7]: 90% | Solubility at tested concentrations ([3]; tested concentration 1.7 mM): not soluble

Cc1ccc(S(=O)(=O)N(C)CC2CCOC2)c(C)c1 (stereo not drawn) [Compound S213-1641]
remaining activity at 2100 µM [2, 7]: 110% | Solubility at tested concentrations ([3]; tested concentration 2.1 mM): not soluble

O=C(O)c1cnn2c(-c3ccco3)ccnc12 [Compound Y504-8728]
remaining activity at 2200 µM ([2]; read-out: DdlB RA): 56% | Solubility at tested concentrations ([1]; tested concentration 2.2 mM): not soluble

CC1c2cccn2CCN1C(=O)Nc1ccccc1Cl (stereo not drawn) [Compound G551-0008]
remaining activity at 1700 µM [2, 7]: 112% | Solubility at tested concentrations ([3]; tested concentration 1.7 mM): not soluble

CN1CCN(S(=O)(=O)c2cccc3cccnc23)CC1 [Compound 8006-7667]
remaining activity at 2100 µM [2, 7]: 60% | Solubility at tested concentrations ([3]; tested concentration 2.1 mM): not soluble

O=C1COc2ccccc2N1Cc1ccc2c(c1)OCO2 [Compound 8018-5756]
remaining activity at 1800 µM [2, 7]: 103% | Solubility at tested concentrations ([3]; tested concentration 1.8 mM): not soluble

c1ccc(-c2nnc(CC34CC5CC(CC(C5)C3)C4)o2)nc1 [Compound Y502-6922]
Solubility at tested concentrations [1, 6]: not soluble

CCc1cc(C(=O)N2CC3(C)CC2CC(C)(C)C3)no1 (stereo not drawn) [Compound C226-2780]
remaining activity at 2200 µM [2, 7]: 25% | Solubility at tested concentrations ([3]; tested concentration 2.2 mM): not soluble

Cc1cc(C)c(S(=O)(=O)N(C)C2CCCCC2)c(C)c1 [Compound Y030-0169]
Solubility at tested concentrations [1, 6]: not soluble

O=S(=O)(c1c[nH]cn1)N1CCCC1c1cccc(F)c1 (stereo not drawn) [Compound D399-0575]
Solubility at tested concentrations [1, 6]: not soluble

Cc1cccc(Nc2c(-c3ccccc3)c(=O)c2=O)c1 [Compound E470-0476]
remaining activity at 1900 µM ([2]; read-out: DdlB RA): 43% | Solubility at tested concentrations ([1]; tested concentration 1.9 mM): not soluble

Cc1cc(C)c2ccc(/C=N/O)nc2c1O [Compound 0422-0035]
Solubility at tested concentrations [1, 6]: not soluble

COC(=O)c1cc2occc2n1Cc1ccccc1Cl [Compound C777-0071]
remaining activity at 1700 µM [2, 7]: 82% | Solubility at tested concentrations ([3]; tested concentration 1.7 mM): not soluble

Cc1cc2nc(COC(=O)c3ccccc3)cc(=O)n2o1 [Compound G265-0746]
remaining activity at 1800 µM ([2]; read-out: DdlB RA): -1% | Solubility at tested concentrations ([1]; tested concentration 1.8 mM): not soluble

NS(=O)(=O)c1ccc(NC(=O)C2CCCC2)cc1 [Compound Y205-5953]
remaining activity at 1900 µM ([2]; read-out: DdlB RA): 62% | Solubility at tested concentrations ([1]; tested concentration 1.9 mM): not soluble

Oc1nc(-c2ccc(Cl)cc2)c2ccccc2n1 [Compound 3740-0004]
Solubility at tested concentrations [5]: not soluble | remaining activity at 1900 µM [2, 7]: 83%

Reference: PMC9718554, “Discovery of a fragment hit compound targeting D-Ala:D-Ala ligase of bacterial peptidoglycan biosynthesis” (Journal of Enzyme Inhibition and Medicinal Chemistry, 2022)
